Assay results taken from US9078436B2 (priority 2012, dated 2015).
Where two headings read alike, the source gives them in different places.

Key:
[1] = pH of 0.1M solution of the acids tested (Table 1); format: physicochemical
[2] = Conversion of PNMDC to MITC as a function of pH; format: physicochemical; settings: FIGS. 1 and 2; over three hours and over five minutes
Source text: In the decomposition of monoalkyldithiocarbamate salt, the rate at which alkyl isothiocyanate is formed can be determined by the pH of the solution. […] At lower pH levels, a competing reaction, particularly hydrolysis to form carbon disulfide and methylammonium ion, can occur, thus lowering the yield of MITC.
While good conversion can occur over a range of pH values, the results shown in FIGS. 1 and 2 indicate an optimum conversion occurring at about pH 3 (e.g., 2.5-3.5).
An HPLC method was developed to allow the reaction mixtures to be analyzed in real time. This procedure stopped the decomposition of PNMDC by converting any unreacted dithiocarbamate ion to a stable nickel salt:
This compound was then detected by its UV absorption at 365 nm. MITC is unaffected by the presence of the Ni^++ ion and is detected by its UV absorption at 230 nm.

| pH of 0.1M Solution ([1]; listed as Citric Acid (2)) | SMILES | pH of 0.1M Solution [1] | pH of optimum conversion of PNMDC to MITC [2] |
| --- | --- | --- | --- |
|  | CC(=O)O [Acetic Acid] | 2.88 |  |
|  | O=C(O)c1ccccc1 [Benzoic Acid] | 2.61 |  |
| 2.88 | O=C(O)CC(O)(CC(=O)O)C(=O)O [Citric Acid (1), Citric Acid] | 2.06 |  |
|  | O=CO [Formic Acid] | 2.39 |  |
|  | CNC(=S)[S-].[K+] [PNMDC, potassium N-methyldithiocarbamate] |  | ~3 |
